Measurements as given in publication PMC5967201, “The Odorant Binding Protein 6 Expressed in Sensilla Chaetica Displays Preferential Binding Affinity to Host Plants Volatiles in Ectropis obliqua” (Frontiers in Physiology, 2018).
Entries after “also recorded” stand apart in the source; their conditions may differ. Read-outs that look alike come from different tables or passages of the source.

Tests used:
EoblOBP6 [1] = biological target: T1, EoblOBP6 (Ectropis obliqua, UniProt A0A1L2BL92); assay: Fluorescence competitive binding assay (displacement of 1-NPN from recombinant EoblOBP6)
T1 sequence (A0A1L2BL92 entry or part of it): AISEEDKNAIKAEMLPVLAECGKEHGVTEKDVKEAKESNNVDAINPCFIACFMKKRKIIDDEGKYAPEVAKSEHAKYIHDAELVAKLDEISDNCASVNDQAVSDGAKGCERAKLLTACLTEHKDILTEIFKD
Method: (§1) Fluorescence binding assays were performed on a fluorescence spectrophotometer F-380 (Tianjin, China) with a 1 cm light path quartz cuvette and 10 nm slits for excitation and emission. The excitation wavelength was set at 337 nm, and the emission spectrum was recorded between 390 and 500 nm. Both the fluorescent probe N-phenyl-1-naphthylamine (1-NPN) and the tested chemicals were dissolved in methanol in preparation for 1 mM stock solution. […] The fluorescence intensities at the maximum fluorescence emission were plotted against the free ligand concentration to determine the binding constants. The bound ligand was evaluated from the fluorescence intensity in the assumption of the protein was 100% dynamic, with a stoichiometry of 1:1 (protein: ligand) at saturation. The binding curves were linearized using Scatchard Plot.

EoblOBP6 [2] = biological target: T1, EoblOBP6; assay: Fluorescence binding assay of probe 1-NPN with recombinant EoblOBP6 (titration, Scatchard plot)
Method: as §1, with “For the ligand binding assays, the tested compounds, including terpenoids, tea volatiles, herbivore-induced plant volatiles and non-volatile tastants, were selected according to the previously reported isolation from the E. obliqua host plant and non-host plant ([Sun X.L. et al., 2014]; [Zhang Z. et al., 2015]). Fluorescence” for “Fluorescence”, “saturation. […]” for “saturation.”, “dissociation constants of competitors” for “binding curves”, “calculated from the corresponding IC50 values following the equation: Ki = (IC50)/(1+(1-NPN)/K1-NPN), where (1-NPN) is the free concentration of 1-NPN and K1-NPN is the dissociation constant of the protein/1-NPN complex.” for “linearized using Scatchard Plot.”

antennae of E. obliqua = tested on: antennae of E. obliqua; parameters: method as in Zhang Z. et al., 2015; conditions: ref Zhang Z. et al., 2015; cited from earlier work
[3] = Table 1 volatiles, calculated from IC50: Ki = (IC50)/(1+(1-NPN)/K1-NPN)
[4] = Table 2 non-volatile tastants, calculated from IC50: Ki = (IC50)/(1+(1-NPN)/K1-NPN)
[5] = Table 2 non-volatile tastants, competitor 2 to 30 μM, 1-NPN and EoblOBP6 both at 2 μM
[6] = Table 1 volatiles, calculated from IC50: Ki = (IC50)/(1+(1-NPN)/K1-NPN), read-out: Ki
[7] = Table 1 volatiles, competitor titrated 2 to 30 μM into 1-NPN and EoblOBP6 both at 2 μM, 50 mM Tris-HCl pH 7.4, read-out: IC50

C=C1CCC2CC1C2(C)C (stereo not drawn) [(-)-β-Pinene]
Ki (EoblOBP6 [1]; [3]): u.d.

c1ccc2[nH]ccc2c1 [Indole]
Ki (EoblOBP6 [1]; [3]): u.d.

c1ccc(Nc2cccc3ccccc23)cc1 [1-NPN, N-phenyl-1-naphthylamine]
Kd (EoblOBP6 [2]): 2.7 ± 0.24 µM

C=C1CC/C=C(\C)CC[C@@H]2[C@@H]1CC2(C)C [β-Caryophyllene]
Ki (EoblOBP6 [1]; [3]): u.d.

C[C@H](N)C(=O)O [L-Alanine]
Ki (EoblOBP6 [1]; [4]): u.d. | IC50 (EoblOBP6 [1]; [5]): u.d.

OCc1ccccc1 [Benzyl alcohol]
Ki (EoblOBP6 [1]; [3]): u.d.

OC[C@H]1O[C@@](CO)(O[C@H]2O[C@H](CO)[C@@H](O)[C@H](O)[C@H]2O)[C@@H](O)[C@@H]1O [D-Sucrose]
Ki (EoblOBP6 [1]; [4]): u.d. | IC50 (EoblOBP6 [1]; [5]): u.d.

CN1[C@@H]2CC[C@H]1C[C@@H](OC(=O)C(CO)c1ccccc1)C2 (some centres unmarked) [Atropine, reference compound]
Ki (EoblOBP6 [1]; [4]): u.d. | IC50 (EoblOBP6 [1]; [5]): u.d.

COC(=O)c1ccccc1O [Methyl salicylate]
Ki (EoblOBP6 [1]; [3]): u.d.

CC/C=C\CCOC(C)=O [(Z)-3-hexenyl acetate]
Ki (EoblOBP6 [1]; [3]): u.d.

CCC/C=C/C=O [(E)-2-hexenal]
Ki (EoblOBP6 [1]; [3]): u.d.

CC1=CC(=O)[C@@H]2C[C@H]1C2(C)C [Verbenone]
Ki (EoblOBP6 [1]; [3]): u.d.

OC[C@H]1OC(O)[C@H](O)[C@@H](O)[C@@H]1O (stereo partly drawn) [D-Glucose]
Ki (EoblOBP6 [1]; [4]): u.d. | IC50 (EoblOBP6 [1]; [5]): u.d.

O.Oc1cc(O)c2c(c1)O[C@H](c1ccc(O)c(O)c1)[C@@H](O)C2 [Catechin]
Ki (EoblOBP6 [1]; [4]): u.d. | IC50 (EoblOBP6 [1]; [5]): u.d.

C=C1[C@H]2CC[C@H](C2)C1(C)C [(+)-Camphene]
Ki (EoblOBP6 [1]; [3]): u.d.

CC1=CC[C@@H](C(C)(C)O)CC1 [α-Terpineol]
Ki (EoblOBP6 [1]; [3]): u.d.

CCCCCCO [1-Hexanol]
binding ability to EoblOBP6 in words (EoblOBP6 [1]): could hardly bind | Ki (EoblOBP6 [1]; [3]): u.d.

CC/C=C\CCO [(Z)-3-hexenol]
binding ability to EoblOBP6 in words (EoblOBP6 [1]): could hardly bind | Ki (EoblOBP6 [1]; [3]): u.d.

C=C/C(C)=C/C/C=C(\C)CCC=C(C)C [α-Farnesene]
binding ability to EoblOBP6 in words (EoblOBP6 [1]): high binding ability | Ki (EoblOBP6 [1]; [6]): 11 ± 0.29 µM | IC50 (EoblOBP6 [1]; [7]): 15.8 ± 0.42 µM

C=C/C(C)=C/CC=C(C)C [β-Ocimene]
Ki (EoblOBP6 [1]; [3]): u.d.

CC1=CCC(C(C)C)=CC1 [γ-Terpinene]
Ki (EoblOBP6 [1]; [3]): u.d.

C/C1=C\CC/C(C)=C/CC(C)(C)/C=C/C1 [α-Caryophyllene]
Ki (EoblOBP6 [1]; [6]): 15.6 ± 0.19 µM | IC50 (EoblOBP6 [1]; [7]): 22.4 ± 0.27 µM

O=C[C@H](O)[C@@H](O)[C@H](O)CO [D-Xylose]
Ki (EoblOBP6 [1]; [4]): u.d. | IC50 (EoblOBP6 [1]; [5]): u.d.

CC1=CC=C(C(C)C)CC1 [α-Terpinene]
IC50 (EoblOBP6 [1]): 26.2 ± 0.53 µM | Ki (EoblOBP6 [1]): 18.3 ± 0.37 µM | electrophysiological responses from the antennae (antennae of E. obliqua): strong electrophysiological responses

CCCCCCCCCC=O [Decanal]
binding ability to EoblOBP6 in words (EoblOBP6 [1]): could hardly bind | Ki (EoblOBP6 [1]; [3]): u.d.

CC/C=C\CCOC(=O)CCCCC [(Z)-3-hexenyl hexanoate]
Ki (EoblOBP6 [1]; [3]): u.d.

CC1=CCC2CC1C2(C)C (stereo not drawn) [α-Pinene]
Ki (EoblOBP6 [1]; [3]): u.d.

CC1=C[C@H](O)[C@H]2C[C@@H]1C2(C)C (relative stereo) [cis-Verbenol]
Ki (EoblOBP6 [1]; [3]): u.d.

N#CCc1ccccc1 [Benzyl nitrile]
Ki (EoblOBP6 [1]; [3]): u.d.

CC12CCC(CC1=O)C2(C)C (centres unmarked) [Camphor]
Ki (EoblOBP6 [1]; [3]): u.d.

CC/C=C\CC=O [(Z)-3-hexenal]
Ki (EoblOBP6 [1]; [3]): u.d.

Cn1c(=O)c2[nH]cnc2n(C)c1=O [Theophylline, reference compound]
Ki (EoblOBP6 [1]; [4]): u.d. | IC50 (EoblOBP6 [1]; [5]): u.d.

CCCCCCOC(C)=O [Hexyl acetate]
binding ability to EoblOBP6 in words (EoblOBP6 [1]): could hardly bind | Ki (EoblOBP6 [1]; [3]): u.d.

C=CC(=C)CCC=C(C)C [β-Myrcene]
Ki (EoblOBP6 [1]; [3]): u.d.

COc1ccc2cc3[n+](cc2c1OC)CCc1cc2c(cc1-3)OCO2 [Berberine]
IC50 (EoblOBP6 [1]): 7.94 ± 0.61 µM | Ki (EoblOBP6 [1]): 5.55 ± 0.87 µM | binding ability to EoblOBP6 in words (EoblOBP6 [1]): tightly bound; also recorded: bind strongly

Cn1c(=O)c2c(ncn2C)n(C)c1=O [Caffeine, reference compound]
Ki (EoblOBP6 [1]; [4]): u.d. | IC50 (EoblOBP6 [1]; [5]): u.d.

CC(=O)/C=C/C1=C(C)CCCC1(C)C [β-Ionone]
Ki (EoblOBP6 [1]; [3]): u.d.

N[C@@H](Cc1c[nH]cn1)C(=O)O [L-Histidine]
Ki (EoblOBP6 [1]; [4]): u.d. | IC50 (EoblOBP6 [1]; [5]): u.d.

OC[C@H]1O[C@H](O[C@H]2O[C@H](CO)[C@@H](O)[C@H](O)[C@H]2O)[C@H](O)[C@@H](O)[C@@H]1O [Trehalose]
Ki (EoblOBP6 [1]; [4]): u.d. | IC50 (EoblOBP6 [1]; [5]): u.d.

C=C(C)[C@H]1CC=C(C)CC1 [Limonene]
Ki (EoblOBP6 [1]; [3]): u.d.

C=CC(C)(O)CCC=C(C)CCC=C(C)C (mixture of isomers) [Nerolidol]
IC50 (EoblOBP6 [1]): 15.6 ± 0.76 µM | Ki (EoblOBP6 [1]): 10.9 ± 0.53 µM | binding ability to EoblOBP6 in words (EoblOBP6 [1]): high binding ability

CC/C=C\CCOC(=O)CCC [(Z)-3-hexenyl butyrate]
Ki (EoblOBP6 [1]; [3]): u.d.

CCCCCCCCC=O [Nonanal]
Ki (EoblOBP6 [1]; [3]): u.d.

OCc1ccccc1O[C@@H]1O[C@H](CO)[C@@H](O)[C@H](O)[C@H]1O [D(-)-Salicin]
Ki (EoblOBP6 [1]; [4]): u.d. | IC50 (EoblOBP6 [1]; [5]): u.d.

C=CC(C)(O)CCC=C(C)C (centres unmarked) [Linalool]
Ki (EoblOBP6 [1]; [3]): u.d.

O=Cc1ccccc1 [Benzaldehyde]
IC50 (EoblOBP6 [1]): 21.6 ± 0.84 µM | Ki (EoblOBP6 [1]): 15.1 ± 0.58 µM
